The molecules below were run against PD-1-Ig binding to PD-L1-TVMV-His (PD-L1-His) (Homo sapiens (Human), UniProt Q9NZQ7) (assay: PD-1/PD-L1 Homogenous Time-Resolved Fluorescence (HTRF) binding assay). Details: PD-1-Ig/PD-L1-His binding; numeric value; read-out: HTRF IC50 (μM) or Range.
PD-1-Ig binding to PD-L1-TVMV-His (PD-L1-His), sequence (Q9NZQ7 other isoform, or with tags, fused parts or gaps): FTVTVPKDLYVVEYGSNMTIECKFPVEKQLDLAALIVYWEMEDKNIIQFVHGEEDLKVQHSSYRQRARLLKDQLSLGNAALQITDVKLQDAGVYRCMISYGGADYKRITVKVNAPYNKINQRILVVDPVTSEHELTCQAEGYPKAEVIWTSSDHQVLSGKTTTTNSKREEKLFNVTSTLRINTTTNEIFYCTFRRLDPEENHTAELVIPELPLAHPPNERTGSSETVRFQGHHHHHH
From the text: The ability of the macrocyclic peptides of the present disclosure to bind to PD-L1 was investigated using a PD-1/PD-L1 Homogenous Time-Resolved Fluorescence (HTRF) binding assay.
Homogenous Time-Resolved Fluorescence (HTRF) Assays of Binding of Soluble PD-1 to Soluble PD-L1. Soluble PD-1 and soluble PD-L1 refers to proteins with carboxyl-end truncations that remove the transmembrane-spanning regions and are fused to heterologous sequences, specifically the Fc portion of the human immunoglobuling G sequence (Ig) or the hexahistidine epitope tag (His). All binding studies were performed in an HTRF assay buffer consisting of dPBS supplemented with 0.1% (w/v) bovine serum albumin and 0.05% (v/v) Tween-20. For the PD-1-Ig/PD-L1-His binding assay, inhibitors were pre-incubated with PD-L1-His (10 nM final) for 15m in 4 μl of assay buffer, followed by addition of PD-1-Ig (20 nM final) in 1 μl of assay buffer and further incubation for 15 m. PD-L1 fusion proteins from either human, cynomologous macaques, mouse, or other species were used. HTRF detection was achieved using europium crypate-labeled anti-Ig monoclonal antibody (1 nM final) and allophycocyanin (APC) labeled anti-His monoclonal antibody (20 nM final). Antibodies were diluted in HTRF detection buffer and 5 μl was dispensed on top of binding reaction. The reaction was allowed to equilibrate for 30 minutes and signal (665 nm/620 nm ratio) was obtained using an EnVision fluorometer. Additional binding assays were established between PD-1-Ig/PD-L2-His (20 and 5 nM, respectively), CD8O-His/PD-L1-Ig (100 and 10 nM, respectively) and CD80-His/CTLA4-Ig (10 and 5 nM, respectively). Binding/competition studies between biotinylated Compound No. 71 and human PD-L1-His were performed as follows. Macrocyclic peptide inhibitors were pre-incubated with PD-L1-His (10 nM final) for 60 minutes in 4 μl of assay buffer followed by addition of biotinylated Compound No. 71 (0.5 nM final) in 1 μl of assay buffer. Binding was allowed to equilibrate for 30 minutes followed by addition of europium crypated labeled Streptavidin (2.5 pM final) and APC-labeled anti-His (20 nM final) in 5 μl of HTRF buffer. The reaction was allowed to equilibrate for 30 m and signal (665 nm/620 nm ratio) was obtained using an EnVision fluorometer.
Recombinant Proteins. Carboxyl-truncated human PD-1 (amino acids 25-167) with a C-terminal human Ig epitope tag [hPD-1 (25-167)-35-IG] and human PD-L1 (amino acids 18-239) with a C-terminal His epitope tag [hPD-L1(19-239)-tobacco vein mottling virus protease cleavage site (TVMV)-His] were expressed in HEK293T cells and purified sequentially by recombinant Protein A affinity chromatography and size exclusion chromatography. Human PD-L2-His (Sino Biologicals), CD80-His (Sino Biologicals), CTLA4-Ig (RnD Systems) were all obtained through commercial sources.
Work on `CC(C)C[C@@H]1NC(=O)[C@H](CN)NC(=O)[C@@H]2CCCN2C(=O)[C@H](CC(N)=O)NC(=O)[C@H](C)N(C)C(=O)[C@H](Cc2ccc(O)cc2)NC(=O)CSC[C@H](C(=O)NCC(N)=O)NC(=O)[C@@H](C)NC(=O)[C@H]2CC/C=C\CC[C@@H](C(=O)N2C)N(C)C(=O)[C@H](Cc2c[nH]c3ccccc23)NC(=O)[C@H](CO)NC(=O)[C@@H](Cc2c[nH]c3ccccc23)NC(=O)[C@@H]2C[C@@H](O)CN2C1=O` [Example 1103] yielded an IC50 of 1.5 µM.
For `C[C@@H]1NC(=O)[C@@H]2CCCC/C=C\CCCC[C@@H](C(=O)N2C)N(C)C(=O)[C@H](Cc2c[nH]c3ccccc23)NC(=O)[C@H](CO)NC(=O)[C@H](Cc2c[nH]c3ccccc23)NC(=O)[C@@H]2C[C@@H](O)CN2C(=O)[C@H](CCC(N)=O)NC(=O)[C@H](Cc2cnc[nH]2)NC(=O)[C@@H]2CCCN2C(=O)[C@H](CC(=O)O)NC(=O)[C@@H]2CCCCN2C(=O)[C@H](Cc2ccc(O)cc2)NC(=O)CSC[C@@H](C(=O)NCC(N)=O)NC1=O` [Example 1120], the IC50 was 0.004 µM.
Work on `C[C@@H]1NC(=O)[C@@H]2CCCC/C=C\CCCC[C@@H](C(=O)N2C)N(C)C(=O)[C@H](Cc2c[nH]c3ccccc23)NC(=O)[C@H](CO)NC(=O)[C@H](Cc2c[nH]c3ccccc23)NC(=O)[C@@H]2C[C@@H](O)CN2C(=O)[C@H](CCC(N)=O)NC(=O)[C@H](Cc2cnc[nH]2)NC(=O)[C@@H]2CCCN2C(=O)[C@H](CC(=O)O)NC(=O)[C@@H]2CNCCN2C(=O)[C@H](Cc2ccc(O)cc2)NC(=O)CSC[C@@H](C(=O)NCC(N)=O)NC1=O` [Example 1115] yielded an IC50 of 0.011 µM.

Same assay, conditions: PD-1-Ig/PD-L1-His binding; value given as range class; read-out: HTRF IC50 (μM) or Range
`C[C@H]1C(=O)N[C@@H](CC(=O)O)C(=O)N2CCC[C@H]2C(=O)N[C@@H](CN)C(=O)N[C@@H](CCC(=O)O)C(=O)N2C[C@H](O)C[C@H]2C(=O)N[C@@H](Cc2c[nH]c3ccccc23)C(=O)N[C@@H](CO)C(=O)N[C@@H](Cc2c[nH]c3ccccc23)C(=O)N(C)[C@H]2CCCC/C=C\CCCC[C@@H](C(=O)N[C@@H](CCC(=O)O)C(=O)N[C@H](C(=O)NCC(N)=O)CSCC(=O)N[C@@H](Cc3ccc(O)cc3)C(=O)N1C)N(C)C2=O` [Example 1111] was tested, and the IC50 was 0.002 to 0.0099 µM.
Work on `C[C@H]1C(=O)N[C@@H](CC(=O)O)C(=O)N2CCC[C@H]2C(=O)N[C@@H](CN)C(=O)N[C@@H](CCC(=O)O)C(=O)N2C[C@H](O)C[C@H]2C(=O)N[C@@H](Cc2c[nH]c3ccccc23)C(=O)N[C@@H](CO)C(=O)N[C@@H](Cc2cn(CC(=O)O)c3ccccc23)C(=O)N(C)[C@H]2CCCC/C=C\CCCC[C@@H](C(=O)N[C@@H](CCC(=O)O)C(=O)N[C@H](C(=O)NCC(N)=O)CSCC(=O)N[C@@H](Cc3ccc(O)cc3)C(=O)N1C)N(C)C2=O` [Example 1117] yielded an IC50 of 0.002 to 0.0099 µM.
In the case of `CC(C)C[C@@H]1NC(=O)[C@H](CN)NC(=O)[C@@H]2CCCN2C(=O)[C@H](CC(N)=O)NC(=O)[C@H](C)N(C)C(=O)[C@H](Cc2ccc(O)cc2)NC(=O)CSC[C@H](C(=O)NCC(N)=O)NC(=O)[C@@H](CCCN)NC(=O)[C@H]2CCC/C=C\CCC[C@@H](C(=O)N2C)N(C)C(=O)[C@H](Cc2c[nH]c3ccccc23)NC(=O)[C@H](CO)NC(=O)[C@@H](Cc2c[nH]c3ccccc23)NC(=O)[C@@H]2C[C@@H](O)CN2C1=O` [Example 1104], the IC50 is reported as 0.01 to 0.099 µM.
With `CC(C)C[C@@H]1NC(=O)[C@H](Cc2cnc[nH]2)NC(=O)[C@@H]2CCCN2C(=O)[C@H](CC(N)=O)NC(=O)[C@@H]2COCCN2C(=O)[C@H](Cc2ccc(O)cc2)NC(=O)CSC[C@H](C(=O)NCC(N)=O)NC(=O)[C@@H](C)NC(=O)C2CCC/C=C\CCC[C@@H](C(=O)N2C)N(C)C(=O)[C@H](Cc2c[nH]c3ccccc23)NC(=O)[C@H](CO)NC(=O)[C@@H](Cc2c[nH]c3ccccc23)NC(=O)[C@@H]2C[C@@H](O)CN2C1=O` [Example 1105] the IC50 was 0.1 to 2 µM.
Molecule `C[C@H]1C(=O)N[C@@H](CC(=O)O)C(=O)N2CCC[C@H]2C(=O)N[C@@H](CN)C(=O)N[C@@H](CCC(=O)O)C(=O)N2C[C@H](O)C[C@H]2C(=O)N[C@@H](Cc2c[nH]c3ccccc23)C(=O)N[C@@H](CCN)C(=O)N[C@@H](Cc2cn(CC(=O)O)c3ccccc23)C(=O)N(C)C2CCCCC/C=C\CCCC[C@@H](C(=O)N[C@@H](CCC(=O)O)C(=O)N[C@H](C(=O)NCC(N)=O)CSCC(=O)N[C@@H](Cc3ccc(O)cc3)C(=O)N1C)N(C)C2=O` [Example 1122] has an IC50 of 0.002 to 0.0099 µM.
`CC(C)C[C@@H]1NC(=O)[C@H](CN)NC(=O)[C@@H]2CCCN2C(=O)[C@H](CC(N)=O)NC(=O)[C@H](C)N(C)C(=O)[C@H](Cc2ccc(O)cc2)NC(=O)CSC[C@@H](C(N)=O)NC(=O)[C@H](CCCNC(=N)N)NC(=O)[C@@H]2CCCC/C=C\CCCC[C@@H](C(=O)N2C)N(C)C(=O)[C@H](Cc2c[nH]c3ccccc23)NC(=O)[C@H](CO)NC(=O)[C@H](Cc2c[nH]c3ccccc23)NC(=O)[C@@H]2C[C@@H](O)CN2C1=O` [Example 1107] gave an IC50 of 0.01 to 0.099 µM.
In the case of `CN1C(=O)[C@H](Cc2cn(CC(=O)O)c3ccccc23)NC(=O)[C@H](CCN)NC(=O)[C@H](Cc2c[nH]c3ccccc23)NC(=O)[C@@H]2C[C@@H](O)CN2C(=O)[C@H](CCC(=O)O)NC(=O)[C@H](CN)NC(=O)[C@@H]2CCCN2C(=O)[C@H](CC(=O)O)NC(=O)[C@H]2CCCCN2C(=O)[C@H](Cc2ccc(O)cc2)NC(=O)CSC[C@@H](C(=O)NCC(N)=O)NC(=O)[C@H](CCC(=O)O)NC(=O)[C@@H]2Cc3ccc(cc3)OCC=CCCC[C@H]1C(=O)N2C` [Example 1121], the IC50 is reported as 0.01 to 0.099 µM.
Work on `C[C@H]1C(=O)N[C@@H](CC(=O)O)C(=O)N2CCC[C@H]2C(=O)N[C@@H](CN)C(=O)N[C@@H](CCC(=O)O)C(=O)N2C[C@H](O)C[C@H]2C(=O)N[C@@H](Cc2c[nH]c3ccccc23)C(=O)N[C@@H](CO)C(=O)N[C@@H](Cc2csc3ccccc23)C(=O)N(C)[C@H]2CCCC/C=C\CCCC[C@@H](C(=O)N[C@@H](CN)C(=O)N[C@H](C(=O)NCC(N)=O)CSCC(=O)N[C@@H](Cc3ccc(O)cc3)C(=O)N1C)N(C)C2=O` [Example 1118] yielded an IC50 of 0.002 to 0.0099 µM.
`C[C@@H]1NC(=O)[C@@H]2CCCC/C=C\CCCC[C@@H](C(=O)N2C)N(C)C(=O)[C@H](Cc2c[nH]c3ccccc23)NC(=O)[C@H](CO)NC(=O)[C@H](Cc2c[nH]c3ccccc23)NC(=O)[C@@H]2C[C@@H](O)CN2C(=O)[C@H](CCC(N)=O)NC(=O)[C@H](Cc2cnc[nH]2)NC(=O)[C@@H]2CCCN2C(=O)[C@H](CC(=O)O)NC(=O)[C@H](C)N(C)C(=O)[C@H](Cc2ccc(O)cc2)NC(=O)CSC[C@@H](C(=O)NCC(N)=O)NC1=O` [Example 1113] was tested, and the IC50 was 0.002 to 0.0099 µM.
In the case of `C[C@H]1C(=O)N[C@@H](CC(=O)O)C(=O)N2CCC[C@H]2C(=O)N[C@@H](CN)C(=O)N[C@@H](CCC(=O)O)C(=O)N2C[C@H](O)C[C@H]2C(=O)N[C@@H](Cc2c[nH]c3ccccc23)C(=O)N[C@@H](CO)C(=O)N[C@@H](Cc2c[nH]c3ccccc23)C(=O)N(C)[C@H]2CCCC/C=C\CCCC[C@@H](C(=O)N[C@@H](CCC(=O)O)C(=O)N[C@H](C(N)=O)CSCC(=O)N[C@@H](Cc3ccc(O)cc3)C(=O)N1C)N(C)C2=O` [Example 1108], the IC50 is reported as 0.002 to 0.0099 µM.
`CC(C)C[C@@H]1NC(=O)[C@H](CN)NC(=O)[C@@H]2CCCN2C(=O)[C@H](CC(N)=O)NC(=O)[C@H](C)N(C)C(=O)[C@H](Cc2ccc(O)cc2)NC(=O)CSC[C@H](C(=O)NCC(N)=O)NC(=O)[C@@H](C)NC(=O)[C@H]2CCC/C=C\CCC[C@@H](C(=O)N2C)N(C)C(=O)[C@H](Cc2c[nH]c3ccccc23)NC(=O)[C@H](CO)NC(=O)[C@@H](Cc2c[nH]c3ccccc23)NC(=O)[C@@H]2C[C@@H](O)CN2C1=O` [Example 1106] gave an IC50 of 0.1 to 2 µM.
`CN1C(=O)[C@H](Cc2csc3ccccc23)NC(=O)[C@H](CO)NC(=O)[C@H](Cc2c[nH]c3ccccc23)NC(=O)[C@@H]2C[C@@H](O)CN2C(=O)[C@H](CCC(N)=O)NC(=O)[C@H](CN)NC(=O)[C@@H]2CCCN2C(=O)[C@H](CC(=O)O)NC(=O)[C@@H]2CCCCN2C(=O)[C@H](Cc2ccc(O)cc2)NC(=O)CSC[C@@H](C(=O)NCC(N)=O)NC(=O)[C@H](CN)NC(=O)[C@@H]2CCCC/C=C\CCCC[C@H]1C(=O)N2C` [Example 1119] was tested, and the IC50 was 0.002 to 0.0099 µM.
